Biological target: T1, human type 1 glycine transporter (GlyT1) (Homo sapiens, UniProt P48067)
T1 construct: T98G cells (glioma cells) expressing human type 1 glycine transporter (GlyT1) were used; endogenous in cells; host or cells: T98G cells (human glioma cells)
T1 sequence (P48067 1-706): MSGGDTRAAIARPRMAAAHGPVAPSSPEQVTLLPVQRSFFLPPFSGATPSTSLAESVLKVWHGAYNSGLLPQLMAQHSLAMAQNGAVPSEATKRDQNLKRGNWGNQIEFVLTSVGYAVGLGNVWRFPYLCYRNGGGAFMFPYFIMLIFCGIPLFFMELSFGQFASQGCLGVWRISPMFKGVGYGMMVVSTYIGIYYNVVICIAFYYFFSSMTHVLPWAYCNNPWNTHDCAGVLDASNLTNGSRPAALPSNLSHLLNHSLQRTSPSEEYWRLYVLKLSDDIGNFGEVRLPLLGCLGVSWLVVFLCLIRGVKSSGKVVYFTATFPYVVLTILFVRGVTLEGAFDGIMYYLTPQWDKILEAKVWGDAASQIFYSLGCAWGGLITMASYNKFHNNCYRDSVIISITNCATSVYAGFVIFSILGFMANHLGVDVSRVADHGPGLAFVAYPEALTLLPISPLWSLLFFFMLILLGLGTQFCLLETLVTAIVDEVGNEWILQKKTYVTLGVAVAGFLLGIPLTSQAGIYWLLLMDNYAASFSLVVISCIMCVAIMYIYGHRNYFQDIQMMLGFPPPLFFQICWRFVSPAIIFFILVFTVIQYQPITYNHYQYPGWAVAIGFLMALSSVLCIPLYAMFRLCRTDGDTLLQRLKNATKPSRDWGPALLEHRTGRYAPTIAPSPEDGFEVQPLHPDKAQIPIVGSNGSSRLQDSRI
Assay: Glycine uptake inhibition experiment ([3H] glycine uptake in T98G cells expressing GlyT1)
Assay type: cell-based
Conditions: not given
How it was run: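 T98G glioma cells expressing human GlyT1 were pretreated 10 min with compound in HEPES buffer pH 7.4 (0.2% BSA), then incubated with compound plus 250 nM final [3H]glycine for 15 min at room temperature. Intracellular radioactivity was counted after NaOH lysis; 10 μM ALX5407 defined non-specific uptake. IC50 came from 10^−9–10^−5 M curves.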

| SMILES | IC50 [nM] |
| --- | --- |
| O=C1N(Cc2ccc(Cl)cn2)c2cccc(C(O)C(F)F)c2C1(F)F (single isomer, unassigned) [Compound 162, 1-[(5-chloropyridin-2-yl)methyl]-4-(2,2-difluoro-1-hydroxyethyl)-3,3-difluoro-1,3-dihydro-2H-indol-2-one] | 220 |
| COc1ccc(CN2C(=O)C(F)(F)c3c([C@H](C)O)cccc32)nc1C#N [Compound 217, 6-({3,3-difluoro-4-[(1S)-1-hydroxyethyl]-2-oxo-2,3-dihydro-1H-indol-1-yl}methyl)-3-methoxypyridine-2-carbonitrile] | 120 |
| C[C@H](O)c1cccc2c1C(F)(F)C(=O)N2Cc1cnc(Cl)c(Cl)c1 [Compound 200, 1-[(5,6-dichloropyridin-3-yl)methyl]-3,3-difluoro-4-[(1S)-1-hydroxyethyl]-1,3-dihydro-2H-indol-2-one] | 8.6 |
| N#Cc1cccc(CN2C(=O)C(F)(F)c3c(C(O)C(F)F)cccc32)n1 (single isomer, unassigned) [Compound 176, 6-{[4-(2,2-difluoro-1-hydroxyethyl)-3,3-difluoro-2-oxo-2,3-dihydro-1H-indol-1-yl]methyl}pyridine-2-carbonitrile] | 41 |
| C[C@H](O)c1cccc2c1C(F)(F)C(=O)N2Cc1cc(C(F)(F)F)c(Cl)cn1 [Compound 212, 1-{[5-chloro-4-(trifluoromethyl)pyridin-2-yl]methyl}-3,3-difluoro-4-[(1S)-1-hydroxyethyl]-1,3-dihydro-2H-indol-2-one] | 8.2 |
| CC(O)c1c(F)ccc2c1C(F)(F)C(=O)N2Cc1ccnc(C#N)c1 (single isomer, unassigned) [Compound 184, 4-{(3,3,5-trifluoro-4-(1-hydroxyethyl)-2-oxo-2,3-dihydro-1H-indol-1-yl]methyl}pyridine-2-carbonitrile] | 95 |
| O=C1N(Cc2ccc(C(F)(F)F)cn2)c2cccc(C(O)C(F)F)c2C1(F)F (single isomer, unassigned) [Compound 169] | 56 |

Same assay, conditions: glycine uptake inhibition

| SMILES | IC50 [nM] |
| --- | --- |
| O=C1N(Cc2cc3ccccc3c(=O)[nH]2)c2cccc([C@@H](O)C(F)(F)F)c2C1(F)F [Compound 138, 3-({3,3-difluoro-2-oxo-4-[(1R)-2,2,2-trifluoro-1-hydroxyethyl]-2,3-dihydro-1H-indol-1-yl}methyl) isoquinolin-1(2H)-one] | 58 |
| C[C@H](O)c1cccc2c1C(F)(F)C(=O)N2Cc1nnc2ccccc2n1 [Compound 105, 1-(1,2,4-benzotriazin-3-ylmethyl)-3,3-difluoro-4-[(1S)-1-hydroxyethyl]-1,3-dihydro-2H-indol-2-one] | 1000 |
| O=C1N(Cc2ccc(F)nc2)c2cccc([C@@H](O)C(F)(F)F)c2C1(F)F [Compound 155, 3,3-difluoro-1-[(6-fluoropyridin-3-yl)methyl]-4-[(1R)-2,2,2-trifluoro-1-hydroxyethyl]-1,3-dihydro-2H-indol-2-one] | 180 |
| C[C@H](O)c1cccc2c1C(F)(F)C(=O)N2Cc1nc2ccccc2n1C [Compound 75, 3,3-difluoro-4-[(1S)-1-hydroxyethyl]-1-[(1-methyl-1H-benzimidazol-2-yl)methyl]-1,3-dihydro-2H-indol-2-one] | 34 |
| C[C@H](O)c1cccc2c1C(F)(F)C(=O)N2Cc1ccsc1 [Compound 80, 3,3-difluoro-4-[(1S)-1-hydroxyethyl]-1-(thiophen-3-ylmethyl)-1,3-dihydro-2H-indol-2-one] | 28 |
| C[C@H](O)c1cccc2c1C(F)(F)C(=O)N2Cc1cncc(C(F)F)c1 [Compound 116, 1-{[5-(difluoromethyl)pyridin-3-yl]methyl}-3,3-difluoro-4-[(1S)-1-hydroxyethyl]-1,3-dihydro-2H-indol-2-one] | 110 |
| O=C1N(Cc2ccnc(C(F)F)c2)c2cccc(C(O)C(F)F)c2C1(F)F (single isomer, unassigned) [Compound 152, 4-(2,2-difluoro-1-hydroxyethyl)-1-{[2-(difluoromethyl)pyridin-4-yl]methyl}-3,3-difluoro-1,3-dihydro-2H-indol-2-one] | 88 |
| C[C@H](O)c1cccc2c1C(F)(F)C(=O)N2Cc1cnc2ccccc2n1 [Compound 83, 3,3-difluoro-4-[(1S)-1-hydroxyethyl]-1-(quinoxalin-2-ylmethyl)1,3-dihydro-2H-indol-2-one] | 30 |
| O=C1N(Cc2cc(Cl)ccn2)c2cccc([C@@H](O)C(F)(F)F)c2C1(F)F [Compound 145, 1-[(4-chloropyndin-2-yl)methyl]-3,3-difluoro-4-[(1R)-2,2,2-trifluoro-1-hydroxyethyl]-1,3-dihydro-2H-indol-2-one] | 43 |
| Cn1c(CN2C(=O)C(F)(F)c3c([C@@H](O)C(F)(F)F)cccc32)nc2ccccc2c1=O [Compound 37, 2-({3,3-difluoro-2-oxo-4-[(1R)-2,2,2-trifluoro-1-hydroxyethyl]-2,3-dihydro-1H-indol-1-yl}methyl)-3-methylquinazolin-4(3H)-one] | 43 |
| C[C@@H](O)c1cccc2c1C(F)(F)C(=O)N2Cc1nc2ccccc2c(=O)n1C [Compound 39, 2-({3,3-difluoro-4-[(1R)-1-hydroxyethyl]-2-oxo-2,3-dihydro-1H-indol-1-yl}methyl)-3-methylquinazolin-4(3H)-one] | 620 |
| C[C@H](O)c1cccc2c1C(F)(F)C(=O)N2Cc1cccc(C(F)F)n1 [Compound 82, 1-{[6-(difluoromethyl)pyridin-2-yl]methyl}-3,3-difluoro-4-[(1S)-1-hydroxyethyl]-1,3-dihydro-2H-indol-2-one] | 44 |
| CC(O)c1cccc2c1C(F)(F)C(=O)N2Cc1ccnc(C#N)c1 (stereo not shown) [Compound 28] | 98 |
| C[C@H](O)c1cccc2c1C(F)(F)C(=O)N2Cc1nc2ccccc2c(=O)n1C [Compound 41, 2-({3,3-difluoro-4-[(1S)-1-hydroxyethyl]-2-oxo-2,3-dihydro-1H-indol-1-yl}methyl)-3-methylquinazolin-4(3H)-one] | 29 |
| C[C@H](O)c1cccc2c1C(F)(F)C(=O)N2Cc1ccccc1 [Compound 54, 1-benzyl-3,3-difluoro-4-[(1S)-1-hydroxyethyl]-1,3-dihydro-2H-indol-2-one] | 20 |
| C[C@H](O)c1cccc2c1C(F)(F)C(=O)N2Cc1ccc(F)nc1 [Compound 128, 3,3-difluoro-1-[(S-fluoropyridin-3-yl)methyl]-4-[(1S)-1-hydroxyethyl]-1,3-dihydro-2H-indol-2-one] | 52 |
| O=C1N(Cc2cccc(Cl)n2)c2cccc(C3(O)COC3)c2C1(F)F [Compound 25, 1-[(6-chloropyridin-2-yl)methyl]-3,3-difluoro-4-(3-hydroxyoxetan-3-yl)-1,3-dihydro-2H-indol-2-one] | 7600 |
| C[C@H](O)c1cccc2c1C(F)(F)C(=O)N2Cc1cccc(-n2cncn2)n1 [Compound 62, 3,3-difluoro-4-[(1S)-1-hydroxyethyl]-1-{[6-(1H-1,2,4-triazol-1-yl)pyridin-2-yl]methyl}-1,3-dihydro-2H-indol-2-one] | 230 |
| N#Cc1cc(CN2C(=O)C(F)(F)c3c(C(O)C(F)(F)F)cccc32)ccn1 (single isomer, unassigned) [Compound 21, 4-{[3,3-difluoro-2-oxo-4-(2,2,2-trifluoro-1-hydroxyethyl)-2,3-dihydro-1H-indol-1-yl]methyl}pyridine-2-carbonitrile] | 71 |
| C[C@H](O)c1c(Cl)ccc2c1C(F)(F)C(=O)N2Cc1cncc(Cl)c1 [Compound 90, 5-chloro-1-[(5-chloropyridin-3-yl)methyl]-3,3-difluoro-4-[(1S)-1-hydroxyethyl]-1,3-dihydro-2H-indol-2-one] | 46 |
| C[C@H](O)c1cccc2c1C(F)(F)C(=O)N2Cc1cccnc1 [Compound 61, 3,3-difluoro-4-[(1S)-1-hydroxyethyl]-1-(pyridin-3-ylmethyl)-1,3-dihydro-2H-indol-2-one] | 420 |
| O=C1N(Cc2cccc(C(F)F)n2)c2cccc(C(O)C(F)F)c2C1(F)F (single isomer, unassigned) [Compound 153, 4-(2,2-difluoro-1-hydroxyethyl)-1-{[6-(difluoromethyl)pyridin-2-yl]methyl}-3,3-difluoro-1,3-dihydro-2H-indol-2-one] | 130 |

Same assay, conditions: table section whose head prints (μm)

| SMILES | IC50 [nM] |
| --- | --- |
| O=C1N(Cc2cnc(Cl)cc2Cl)c2cccc(C(O)C(F)F)c2C1(F)F (single isomer, unassigned) [Compound 269, 1-[(4,6-dichloropyridin-3-yl)methyl]-4-(2,2-difluoro-1-hydroxyethyl)-3,3-difluoro-1,3-dihydro-2H-indol-2-one] | 330 |
| N#Cc1cccnc1CN1C(=O)C(F)(F)c2c(C(O)C(F)F)cccc21 (single isomer, unassigned) [Compound 259, 2-{[4-(2,2-difluoro-1-hydroxyethyl)-3,3-difluoro-2-oxo-2,3-dihydro-1H-indol-1-yl]methyl}pyridine-3-carbonitrile] | 1900 |
